Reference: the supplement of paper PMC10307832

How the values were obtained:
Test in all cases: relative viability (nuclei count vs DMSO), 5 days (fraction); higher = more cells survive
LK-2 = tested on: LK-2
Procedure, shortened: (§1)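 Lung cancer cell lines were seeded in 1536-well plates and dosed by pin tool the next day, with either a single drug or a fixed anchor-drug dose combined with five library-drug doses (not always all listed) spaced in √10 steps. Five days later, one step fixed the cells and stained their nuclei (final 0.05% Triton X-100, 1% formaldehyde, 1 ug/ml Hoechst), and nuclei were counted on 4× images. Relative viability is the nuclei count in treated wells divided by the count in vehicle wells, and each value is the median of duplicate plates.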

SW 900 = tested on: SW 900
Procedure, shortened: as §1

NCI-H1563 = tested on: NCI-H1563
Procedure, shortened: as §1

EMC-BAC-2 = tested on: EMC-BAC-2
Procedure, shortened: as §1

COR-L 105 = tested on: COR-L 105
Procedure, shortened: as §1

SK-MES-1 = tested on: SK-MES-1
Procedure, shortened: as §1

NCI-H1734 = tested on: NCI-H1734
Procedure, shortened: as §1

EKVX = tested on: EKVX
Procedure, shortened: as §1

NCI-H23 = tested on: NCI-H23
Procedure, shortened: as §1

ChaGo-K-1 = tested on: ChaGo-K-1
Procedure, shortened: as §1

H3255 = tested on: H3255
Procedure, shortened: as §1

NCI-H441 = tested on: NCI-H441
Procedure, shortened: as §1

NCI-H520 = tested on: NCI-H520
Procedure, shortened: as §1

NCI-H596 = tested on: NCI-H596
Procedure, shortened: as §1

LOU-NH91 = tested on: LOU-NH91
Procedure, shortened: as §1

NCI-H1666 = tested on: NCI-H1666
Procedure, shortened: as §1

NCI-H1975 = tested on: NCI-H1975
Procedure, shortened: as §1

PC-3 [JPC-3] = tested on: PC-3 [JPC-3]
Procedure, shortened: as §1

NCI-H1755 = tested on: NCI-H1755
Procedure, shortened: as §1

A-427 = tested on: A-427
Procedure, shortened: as §1

NCI-H2170 = tested on: NCI-H2170
Procedure, shortened: as §1

In the case of `Cc1sc2c(c1C)C(c1ccc(Cl)cc1)=N[C@@H](CC(=O)OC(C)(C)C)c1nnc(C)n1-2` [JQ1] + CCNC(=O)c1noc(-c2cc(C(C)C)c(O)cc2O)c1-c1ccc(CN2CCOCC2)cc1 [Luminespib] (partner 0.01 µM), the relative viability (LK-2; first compound 0.04 µM) is reported as 0.188, the relative viability (LK-2; first compound 0.1265 µM) is reported as 0.157 and the relative viability (LK-2; first compound 0.4 µM) is reported as 0.143. For the same compound, the relative viability (LK-2; first compound 1.265 µM) was 0.142, the relative viability (LK-2; first compound 4 µM) was 0.136 and the relative viability (SW 900; first compound 0.04 µM) was 0.153. For the same compound, the relative viability (SW 900; first compound 0.1265 µM) was 0.186, the relative viability (SW 900; first compound 0.4 µM) was 0.169 and the relative viability (SW 900; first compound 1.265 µM) was 0.183. The relative viability (SW 900; first compound 4 µM) was 0.177, the relative viability (NCI-H1563; first compound 0.04 µM) was 0.565 and the relative viability (NCI-H1563; first compound 0.1265 µM) was 0.478. For the same compound, the relative viability (NCI-H1563; first compound 0.4 µM) was 0.449, the relative viability (NCI-H1563; first compound 1.265 µM) was 0.447 and the relative viability (NCI-H1563; first compound 4 µM) was 0.491. For the same compound, the relative viability (EMC-BAC-2; first compound 0.04 µM) was 1.16, the relative viability (EMC-BAC-2; first compound 0.1265 µM) was 1.09 and the relative viability (EMC-BAC-2; first compound 0.4 µM) was 0.925. For the same compound, the relative viability (EMC-BAC-2; first compound 1.265 µM) was 0.472, the relative viability (EMC-BAC-2; first compound 4 µM) was 0.477 and the relative viability (COR-L 105; first compound 0.04 µM) was 0.66. It also gave a relative viability (COR-L 105; first compound 0.1265 µM) of 0.49, a relative viability (COR-L 105; first compound 0.4 µM) of 0.369 and a relative viability (COR-L 105; first compound 1.265 µM) of 0.239. For the same compound, the relative viability (COR-L 105; first compound 4 µM) was 0.206, the relative viability (SK-MES-1; first compound 0.04 µM) was 0.756 and the relative viability (SK-MES-1; first compound 0.1265 µM) was 0.581. The relative viability (SK-MES-1; first compound 0.4 µM) was 0.317, the relative viability (SK-MES-1; first compound 1.265 µM) was 0.163 and the relative viability (SK-MES-1; first compound 4 µM) was 0.173. It also gave a relative viability (NCI-H1734; first compound 0.04 µM) of 0.254, a relative viability (NCI-H1734; first compound 0.1265 µM) of 0.165 and a relative viability (NCI-H1734; first compound 0.4 µM) of 0.158. It also gave a relative viability (NCI-H1734; first compound 1.265 µM) of 0.124, a relative viability (NCI-H1734; first compound 4 µM) of 0.173 and a relative viability (EKVX; first compound 0.04 µM) of 0.832. The relative viability (EKVX; first compound 0.1265 µM) was 0.877, the relative viability (EKVX; first compound 0.4 µM) was 0.895 and the relative viability (EKVX; first compound 1.265 µM) was 0.824. It also gave a relative viability (EKVX; first compound 4 µM) of 0.572, a relative viability (NCI-H23; first compound 0.04 µM) of 0.247 and a relative viability (NCI-H23; first compound 0.1265 µM) of 0.185. For the same compound, the relative viability (NCI-H23; first compound 0.4 µM) was 0.179, the relative viability (NCI-H23; first compound 1.265 µM) was 0.166 and the relative viability (NCI-H23; first compound 4 µM) was 0.173. The relative viability (ChaGo-K-1; first compound 0.04 µM) was 0.77, the relative viability (ChaGo-K-1; first compound 0.1265 µM) was 0.503 and the relative viability (ChaGo-K-1; first compound 0.4 µM) was 0.452. For the same compound, the relative viability (ChaGo-K-1; first compound 1.265 µM) was 0.322, the relative viability (ChaGo-K-1; first compound 4 µM) was 0.285 and the relative viability (H3255; first compound 0.04 µM) was 0.904. For the same compound, the relative viability (H3255; first compound 0.1265 µM) was 0.699, the relative viability (H3255; first compound 0.4 µM) was 1.01 and the relative viability (H3255; first compound 1.265 µM) was 0.768. For the same compound, the relative viability (H3255; first compound 4 µM) was 0.416, the relative viability (NCI-H441; first compound 0.04 µM) was 0.37 and the relative viability (NCI-H441; first compound 0.1265 µM) was 0.501. The relative viability (NCI-H441; first compound 0.4 µM) was 0.419, the relative viability (NCI-H441; first compound 1.265 µM) was 0.253 and the relative viability (NCI-H441; first compound 4 µM) was 0.235. The relative viability (NCI-H520; first compound 0.04 µM) was 0.224, the relative viability (NCI-H520; first compound 0.1265 µM) was 0.244 and the relative viability (NCI-H520; first compound 0.4 µM) was 0.218. The relative viability (NCI-H520; first compound 1.265 µM) was 0.25, the relative viability (NCI-H520; first compound 4 µM) was 0.229 and the relative viability (NCI-H596; first compound 0.04 µM) was 1.09. It also gave a relative viability (NCI-H596; first compound 0.1265 µM) of 0.769, a relative viability (NCI-H596; first compound 0.4 µM) of 0.495 and a relative viability (NCI-H596; first compound 1.265 µM) of 0.344. For the same compound, the relative viability (NCI-H596; first compound 4 µM) was 0.287, the relative viability (LOU-NH91; first compound 0.04 µM) was 0.371 and the relative viability (LOU-NH91; first compound 0.1265 µM) was 0.371. It also gave a relative viability (LOU-NH91; first compound 0.4 µM) of 0.31, a relative viability (LOU-NH91; first compound 1.265 µM) of 0.285 and a relative viability (LOU-NH91; first compound 4 µM) of 0.271. For the same compound, the relative viability (NCI-H1666; first compound 0.04 µM) was 1.03, the relative viability (NCI-H1666; first compound 0.1265 µM) was 0.916 and the relative viability (NCI-H1666; first compound 0.4 µM) was 0.908. It also gave a relative viability (NCI-H1666; first compound 1.265 µM) of 0.669, a relative viability (NCI-H1666; first compound 4 µM) of 0.64 and a relative viability (NCI-H1975; first compound 0.04 µM) of 0.212. It also gave a relative viability (NCI-H1975; first compound 0.1265 µM) of 0.137, a relative viability (NCI-H1975; first compound 0.4 µM) of 0.162 and a relative viability (NCI-H1975; first compound 1.265 µM) of 0.206. For the same compound, the relative viability (NCI-H1975; first compound 4 µM) was 0.172, the relative viability (PC-3 [JPC-3]; first compound 0.04 µM) was 0.82 and the relative viability (PC-3 [JPC-3]; first compound 0.1265 µM) was 0.716. It also gave a relative viability (PC-3 [JPC-3]; first compound 0.4 µM) of 0.614, a relative viability (PC-3 [JPC-3]; first compound 1.265 µM) of 0.443 and a relative viability (PC-3 [JPC-3]; first compound 4 µM) of 0.302. For the same compound, the relative viability (NCI-H1755; first compound 0.04 µM) was 0.645, the relative viability (NCI-H1755; first compound 0.1265 µM) was 0.283 and the relative viability (NCI-H1755; first compound 0.4 µM) was 0.539. The relative viability (NCI-H1755; first compound 1.265 µM) was 0.393, the relative viability (NCI-H1755; first compound 4 µM) was 0.442 and the relative viability (A-427; first compound 0.04 µM) was 0.795. For the same compound, the relative viability (A-427; first compound 0.1265 µM) was 0.97, the relative viability (A-427; first compound 0.4 µM) was 0.847 and the relative viability (A-427; first compound 1.265 µM) was 0.563. The relative viability (A-427; first compound 4 µM) was 0.431, the relative viability (NCI-H2170; first compound 0.04 µM) was 0.743 and the relative viability (NCI-H2170; first compound 0.1265 µM) was 0.837. It also gave a relative viability (NCI-H2170; first compound 0.4 µM) of 0.572, a relative viability (NCI-H2170; first compound 1.265 µM) of 0.326 and a relative viability (NCI-H2170; first compound 4 µM) of 0.336.
